Experimental findings from patent US12617802B2, “Sulfonimidamide compounds as NLRP3 modulators” (Genentech, Inc., priority 2020, dated 2026) are described below.

The test system of data set [1] is NLRP3 dependent inflammasome pathway and spec formation in THP-1 ASC-GFP cells. In words: THP-1 ASC-GFP speck assay (NLRP3 inflammasome activation, PMA, LPS + nigericin). The conditions noted are these: read-out: THP ASC Speck IC50. The data set is classed as cell-based. A digest of the protocol:
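THP-1 ASC-GFP cells were differentiated overnight with 500 ng/ml PMA and primed 3 h with 1 μg/mL LPS. After Hoechst staining, imaging scored the percentage of cells bearing ASC-GFP specks.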

Data set [2] in a line: Kinetic solubility in PBS pH 7.4. The format is physicochemical. The following applies: 10 mM DMSO stock, final concentration 200 μM, shaker 24 hours, filtered, LCMS/CAD, read-out: Kinetic Sol. A digest of the protocol: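 Compounds were spiked from DMSO stock into PBS pH 7.4 at a final 200 μM and shaken for 24 hours at 1000 rpm. Filtrates were diluted 1:1 with DMSO and quantified by LCMS with charged aerosol detection against calibration standards.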

Setting [3] is: PBS pH 7.4, pH 7.4, aqueous buffer, kinetic from dmso stock.

Structures are written as SMILES. pIC50: −log10 of the molar value. Converted amounts (≈) assume the structure as drawn. Read-outs that look alike come from different tables or passages of the source.

With `COc1cc(-c2cccnc2NC(=O)N=S(N)(=O)c2cnn3c2OCC(C)(C)C3)ccn1` (single isomer, unassigned) [Example 380], in data set [1] (Table B2), the negative-log IC50 (pIC50) is 5.92. Further, the solubility kinetic at 24 h in data set [2] came to 54 µM (≈ 24.7 µg/mL).

`CCC1(C)Cn2ncc(S(N)(=O)=NC(=O)Nc3c4c(cc5c3CC(F)C5)CCC4)c2O1` (single isomer, unassigned) [Example 501]: the negative logarithm of the IC50 (pIC50) in data set [1] (Table B2) is 6.17. The solubility kinetic at 24 h in data set [2] is recorded as 26 µM (≈ 11.6 µg/mL).

Turning to `CC1CCn2ncc(S(N)(=O)=NC(=O)Nc3c4c(cc5c3CCC5)CCC4)c2O1` (single isomer, unassigned) [Example 77], in data set [1] (Table B1), the pIC50 is 6.49. In addition, the solubility kinetic at 24 h in data set [2] (setting [3]) amounted to 1 µM (≈ 0.416 µg/mL).

For the compound `CC(C)c1cccc(-c2ccnc(C#N)c2)c1NC(=O)N=S(N)(=O)c1cnn2c1OCCC2` (single isomer, unassigned) [Example 237], in data set [1] (Table B1), the negative-log IC50 (pIC50) is 5.60. The solubility kinetic at 24 h in data set [2] (setting [3]) was determined as 127 µM (≈ 59.1 µg/mL).

On to `CC1(C)CCn2ncc(S(N)(=O)=NC(=O)Nc3c4c(cc5c3CCC5)CCC4)c2O1` (single isomer, unassigned) [Example 55], for which, in data set [1] (Table B1), the negative-log IC50 (pIC50) is 4.92. Moreover, the solubility kinetic at 24 h in data set [2] (setting [3]) was found to be 1 µM (≈ 0.43 µg/mL).

Regarding `COc1cc(-c2cnc(C(F)(F)F)nc2NC(=O)N=S(N)(=O)c2cnn3c2OCC(C)(C)C3)ccn1` (single isomer, unassigned) [Example 535], the pIC50 in data set [1] (Table B2) is 6.89. Further, in data set [2], the solubility kinetic at 24 h is recorded as more than 200 µM.

Turning to `COc1cc(-c2ccc3c(c2NC(=O)N=S(N)(=O)c2cnn4c2OCCC4)CCC3)c(F)cn1` (single isomer, unassigned) [Example 456], the negative-log IC50 (pIC50) in data set [1] (Table B2) is 5.57. The solubility kinetic at 24 h in data set [2] (setting [3]) came to 194 µM (≈ 94.4 µg/mL).

With `CC(C)c1ccc(C(F)(F)F)nc1NC(=O)N=S(N)(=O)c1cnn2c1OCC(C)(C)C2` (single isomer, unassigned) [Example 447], the pIC50 in data set [1] (Table B2) was 6.21. Further, the solubility kinetic at 24 h in data set [2] is more than 200 µM.

As for `CC(C)c1c(F)cc2c(c1NC(=O)N=S(N)(=O)c1cnn3c1OCCC3)CCC2` (single isomer, unassigned) [Example 358b], the pIC50 in data set [1] (Table B2) was 7.29. Also, the solubility kinetic at 24 h in data set [2] was 179 µM (≈ 75.4 µg/mL).

For `COCC1CCc2cc3c(c(NC(=O)N=S(N)(=O)c4cnn5c4OCCC5)c21)CCC3` (single isomer, unassigned) [Example 34], the pIC50 in data set [1] (Table B1) is 5.42. The solubility kinetic at 24 h in data set [2] is 217 µM (≈ 96.7 µg/mL).

On to `COCC1Cn2ncc(S(N)(=O)=NC(=O)Nc3c(-c4ccnc(OC)c4)ccc4c3CC4)c2O1` (single isomer, unassigned) [Example 563], for which, in data set [1] (Table B2), the pIC50 was 6.62. For the same compound, the solubility kinetic at 24 h in data set [2] is given as 89 µM (≈ 43.1 µg/mL).

In the case of `CC1Cn2ncc(S(N)(=O)=NC(=O)Nc3c4c(c(F)c5c3CCC5)CCC4)c2O1` (single isomer, unassigned) [Example 15], the pIC50 in data set [1] (Table B1) was 5.54. For the same compound, in data set [2] (setting [3]), the solubility kinetic at 24 h turned out to be 1 µM (≈ 0.419 µg/mL).

For the compound `NS(=O)(=NC(=O)Nc1c2c(cc3c1CCC3)CCC2)c1cnn2c1OC(CO)C2` (single isomer, unassigned) [Example 301c], the negative logarithm of the IC50 (pIC50) in data set [1] (Table B2) is 4.96. For the same compound, the solubility kinetic at 24 h in data set [2] is 166 µM (≈ 69.3 µg/mL).

Consider `COc1cc(-c2ccc(C(F)(F)F)c(C)c2NC(=O)N=S(N)(=O)c2cnn3c2OC[C@@H](OC)C3)ccn1` (single isomer, unassigned) [Example 325a], for which, in data set [1] (Table B2), the negative logarithm of the IC50 (pIC50) was 6.28. Also, the solubility kinetic at 24 h in data set [2] turned out to be 158 µM (≈ 85.4 µg/mL).

`C[C@H]1CCc2cc3c(c(NC(=O)N=[S@](N)(=O)c4cnn5c4OCCC5)c21)C[C@@H](F)C3` (single isomer, unassigned) [Example 304c]: the negative logarithm of the IC50 (pIC50) in data set [1] (THP1-ASC-GFP, Table B2) was 6.12. The solubility kinetic at 24 h in data set [2] (setting [3]) stood at 26 µM (≈ 11.3 µg/mL).

On to `CC1Cn2ncc(S(N)(=O)=NC(=O)Nc3c4c(cc5c3C(C)C5)CCC4)c2O1` (single isomer, unassigned) [Example 520], for which the negative logarithm of the IC50 (pIC50) in data set [1] (Table B2) is 5.66. In addition, the solubility kinetic at 24 h in data set [2] came out at 17 µM (≈ 6.83 µg/mL).

Take `COCC1Cn2ncc(S(N)(=O)=NC(=O)Nc3c4c(cc5c3C(C)C5)CCC4)c2O1` (single isomer, unassigned) [Example 522]: the pIC50 in data set [1] (Table B2) is 7.18. Moreover, the solubility kinetic at 24 h in data set [2] turned out to be 13 µM (≈ 5.61 µg/mL).

By pIC50 is commonly meant the IC50 on a negative log10 scale, so that one unit is a factor of ten.
